pIC50: −log10 of the molar value. Activity calls are given as the source filed them. Rule as the data show it, for most assays here: actives have a measured EC50 and inactives only a lower limit.
Key:
[1] = alpha-synuclein stem-loop luciferase translation blockers – H4 neuroglioma cells, luminescence, confirmation (AID 1988); format: functional, cell-based
[2] = blockers of bursicon-stimulated LGR2 cAMP reporter – cell-based, HEK293, CRE-luciferase reporter, cherry pick, set 2, dose response (AID 743343); format: functional;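 also: transfected cells were stimulated with diluted bursicon conditioned medium after compound addition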
[3] = viability loss in HEK293 cells – cell-based, plate reader, cherry-picked samples, cytotoxicity control, dose response (AID 743446); format: functional
[4] = luciferase reporter signal suppression in cells – H4 neuroglioma cells, luminescence, dose response (AID 1990); format: functional, cell-based
[5] = molecular target: Delta-type opioid receptor (Homo sapiens, UniProt P41143); assay: HTS Image-Based Screen for Antagonists of the DOR Receptor. [Related pubchem assays (depositor defined):AID1777, AID1785, AID1786, AID2133]; format: functional;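 also: U2OS cells expressing DOR stimulated with 100 nM SNC80 agonist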
Chain of Delta-type opioid receptor (P41143 whole entry): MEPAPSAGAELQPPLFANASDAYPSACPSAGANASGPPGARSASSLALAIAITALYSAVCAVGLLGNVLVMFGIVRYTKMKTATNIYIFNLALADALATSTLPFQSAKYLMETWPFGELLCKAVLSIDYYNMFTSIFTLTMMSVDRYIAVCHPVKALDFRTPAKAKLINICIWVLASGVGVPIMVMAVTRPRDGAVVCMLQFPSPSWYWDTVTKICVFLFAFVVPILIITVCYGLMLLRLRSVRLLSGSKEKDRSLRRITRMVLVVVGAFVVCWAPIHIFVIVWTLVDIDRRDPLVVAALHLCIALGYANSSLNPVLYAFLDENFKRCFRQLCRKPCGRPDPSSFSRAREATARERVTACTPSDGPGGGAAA

[6] = molecular target: Kappa-type opioid receptor (Homo sapiens, UniProt P41145); format: functional
Chain of Kappa-type opioid receptor (P41145 whole entry): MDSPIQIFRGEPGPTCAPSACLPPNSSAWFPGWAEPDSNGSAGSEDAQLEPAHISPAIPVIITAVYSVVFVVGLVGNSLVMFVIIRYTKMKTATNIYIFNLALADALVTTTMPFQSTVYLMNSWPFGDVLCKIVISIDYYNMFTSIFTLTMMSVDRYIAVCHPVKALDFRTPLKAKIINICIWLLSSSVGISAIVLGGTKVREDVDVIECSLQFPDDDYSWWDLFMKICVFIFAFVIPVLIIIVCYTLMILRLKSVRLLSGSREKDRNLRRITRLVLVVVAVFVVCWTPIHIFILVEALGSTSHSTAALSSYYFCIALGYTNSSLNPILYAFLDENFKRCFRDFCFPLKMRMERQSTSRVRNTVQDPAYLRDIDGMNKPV

[7] = molecular target: Mu-type opioid receptor (Homo sapiens, UniProt P35372); assay: HTS Image-Based Screen for Agonists of the MOR Receptor. [Related pubchem assays (depositor defined):AID1777, AID1785, AID1786, AID2133]; format: functional;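 also: imaging of beta-arrestin GFP recruitment into spots after receptor activation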
Chain of Mu-type opioid receptor (P35372 whole entry): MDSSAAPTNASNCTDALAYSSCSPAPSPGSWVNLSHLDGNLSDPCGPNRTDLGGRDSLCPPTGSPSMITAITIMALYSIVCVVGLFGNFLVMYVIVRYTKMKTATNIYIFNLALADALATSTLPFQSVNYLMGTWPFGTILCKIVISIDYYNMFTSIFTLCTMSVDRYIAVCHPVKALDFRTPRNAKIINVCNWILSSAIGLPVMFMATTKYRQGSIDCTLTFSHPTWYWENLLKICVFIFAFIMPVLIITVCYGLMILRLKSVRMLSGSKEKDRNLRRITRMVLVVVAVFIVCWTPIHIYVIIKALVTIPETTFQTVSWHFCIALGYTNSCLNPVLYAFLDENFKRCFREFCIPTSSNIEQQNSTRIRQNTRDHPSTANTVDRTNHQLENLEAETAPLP

[8] = Luminescence Cell-Based Dose Response HTS to Identify Inhibitors of 5'UTR Stem-Loop Driven Prion Protein mRNA Translation in H4 Neuroglioblastoma Cells. [Related pubchem assays: 1827 (Project Summary), 1813 (Primary HTS)]; format: functional
[9] = molecular target: G-protein coupled receptor 55 (Homo sapiens, UniProt Q9Y2T6); assay: inhibition of LPI-stimulated GPR55 beta-arrestin translocation – imaging, U2OS, beta-arrestin-GFP, LPI agonist, primary screen (AID 2013); format: functional;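 also: antagonist potency measured as reduced agonist-driven arrestin aggregation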
Chain of G-protein coupled receptor 55 (Q9Y2T6 whole entry): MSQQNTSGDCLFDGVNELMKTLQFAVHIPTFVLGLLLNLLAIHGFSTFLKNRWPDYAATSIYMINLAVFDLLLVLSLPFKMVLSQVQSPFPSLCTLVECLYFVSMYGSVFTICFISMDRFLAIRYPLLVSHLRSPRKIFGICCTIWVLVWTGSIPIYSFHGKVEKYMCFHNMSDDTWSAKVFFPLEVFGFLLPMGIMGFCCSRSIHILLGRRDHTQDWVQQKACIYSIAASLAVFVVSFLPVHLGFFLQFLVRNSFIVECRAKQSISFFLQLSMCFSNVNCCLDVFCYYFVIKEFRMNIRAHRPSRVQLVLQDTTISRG

[10] = test system: Streptococcus sp. 'group A'; assay: Streptococcus pyogenes SK(-)GAS viability under kanamycin – luminescence, BacTiterGlo, confirmation, counter-screen for streptokinase expression inhibitor project, dose response (AID 1900); format: functional, organism-based
[11] = molecular target: T1, Streptokinase A (Streptococcus pyogenes serotype M1, UniProt P10520); assay: viability-normalized secreted streptokinase activity reduction – plasminogen activation absorbance, OD405, dose response (AID 1914); format: functional, Streptococcus pyogenes M1 GAS;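 also: secreted streptokinase activity via plasminogen activation per viability signal from cell pellet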
T1 sequence (P10520 whole entry): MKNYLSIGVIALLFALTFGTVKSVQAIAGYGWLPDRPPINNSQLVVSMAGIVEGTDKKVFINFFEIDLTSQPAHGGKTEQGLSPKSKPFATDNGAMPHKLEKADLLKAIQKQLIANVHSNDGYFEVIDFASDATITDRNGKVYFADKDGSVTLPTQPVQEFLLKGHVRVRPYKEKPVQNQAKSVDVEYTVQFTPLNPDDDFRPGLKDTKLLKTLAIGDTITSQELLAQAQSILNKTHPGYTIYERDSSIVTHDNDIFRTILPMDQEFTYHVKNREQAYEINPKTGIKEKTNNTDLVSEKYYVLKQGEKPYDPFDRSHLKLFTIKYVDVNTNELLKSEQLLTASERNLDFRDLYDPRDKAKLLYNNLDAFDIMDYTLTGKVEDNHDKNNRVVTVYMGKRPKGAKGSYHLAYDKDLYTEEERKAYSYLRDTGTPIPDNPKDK

[12] = fluconazole-exposed Candida albicans growth modulators – fluorescence, retest, confirmation (AID 2467); format: functional, cell-based
[13] = Counterscreen for AddAB inhibitors: absorbance-based bacterial cell-based high throughput dose response assay for inhibitors of bacterial viability. [Related pubchem assays (depositor defined):AID435030, AID449728, AID449731, AID488942, AID488955, AID488956]; format: functional
[14] = molecular target: T2, Serine/threonine-protein phosphatase (Candida dubliniensis (strain CD36 / CBS 7987 / NCPF 3949 / NRRLY-17841) (Yeast), UniProt B9W6M3); assay: blockers of CaCl2-induced CDRE-lacZ signaling – S. cerevisiae, luminescence, secondary, dose response (AID 2388); format: functional, cell-based;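 also: yeast reporter cells carrying a calcineurin-responsive lacZ construct stimulated with calcium chloride; luminescent beta-galactosidase reporter signal in whole cells rather than isolated phosphatase activity; potency for inhibition where a drop in reporter signal means calcineurin blockade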
T2 sequence (B9W6M3 whole entry): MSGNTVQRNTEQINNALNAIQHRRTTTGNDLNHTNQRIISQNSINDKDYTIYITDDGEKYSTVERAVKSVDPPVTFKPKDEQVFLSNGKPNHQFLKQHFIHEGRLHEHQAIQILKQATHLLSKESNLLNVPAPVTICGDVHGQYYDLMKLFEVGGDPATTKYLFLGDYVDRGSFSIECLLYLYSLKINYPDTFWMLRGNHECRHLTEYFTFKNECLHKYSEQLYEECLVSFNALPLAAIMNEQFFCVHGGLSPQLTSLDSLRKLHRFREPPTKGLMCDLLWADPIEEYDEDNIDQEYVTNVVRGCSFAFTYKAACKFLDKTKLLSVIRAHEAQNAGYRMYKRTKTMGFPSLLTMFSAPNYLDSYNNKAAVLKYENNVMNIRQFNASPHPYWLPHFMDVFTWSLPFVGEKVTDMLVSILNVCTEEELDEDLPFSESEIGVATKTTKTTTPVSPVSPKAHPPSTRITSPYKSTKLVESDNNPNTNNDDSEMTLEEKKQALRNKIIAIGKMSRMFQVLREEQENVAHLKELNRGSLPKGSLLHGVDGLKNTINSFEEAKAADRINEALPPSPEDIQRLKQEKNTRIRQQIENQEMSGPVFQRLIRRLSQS

Compound	EC50 [1]	AC50 [2]	AC50 [3]	EC50 [4]	IC50 [5]	pIC50 [6]	EC50 [7]	EC50 [8]	IC50 [9]	EC50 [10]	EC50 [11]	EC50 [12]	IC50 [13]	EC50 [14]
COc1cc(NC(=O)Cn2ncc(Cl)c(Cl)c2=O)c(C)cc1[N+](=O)[O-]	> 120 µM (not active)	23.2 µM (active)	6.28 µM (active)	8.09 µM (active)	> 32 µM (inactive)	4.86	> 32 µM (inactive)	9.83 µM (active)	3.52 µM (active)	–	–	–	–	–
Cc1ccc(C)c(S(=O)(=O)N2CCN(Cc3ccc(O)c4ncccc34)CC2)c1	–	–	–	–	–	–	–	–	–	6.87 µM (active)	> 150 µM (not active)	1.14 µM (active)	> 119 µM (inactive)	36 µM (active)

Source: ChEMBL document CHEMBL1201862, “PubChem BioAssay data set” (2004)
